From EP2698385A1, “Detection of synthetic cannabinoids” (priority 2012, dated 2014)
Where two headings read alike, the source gives them in different places.

How the values were obtained:
[1] = tested on: Antibody to Immunogen VIII; assay type: binding, sheep
[2] = tested on: antiserum raised to Immunogen I (Hapten A-BTG); test: Competitive ELISA microtiter plate assay (Example 19), antiserum raised to Immunogen I, Hapten A-HRP conjugate as detection reagent; assay type: binding, sheep; conditions: for binding to the antibody produced from Immunogen I: result in words
Experimental: Aqueous solutions of the immunogens prepared in examples 5 and 13 were formulated with Freund's Complete Adjuvant (FCA) to form emulsions consisting of 2mg/ml Immunogen I and 2mg/ml of Immunogen II in 50%(v/v) FCA. Three sheep were immunised with each emulsion (1° immunisations), 0.25ml being intramuscularly injected at four sites in the rump of each animal. Subsequent immunisations (boosts 2-8) contained 1mg/ml Immunogen I and 1mg/ml Immunogen II. All boosts were emulsified in 50%(v/v) Freund's Incomplete Adjuvant (FIA) and administered to the appropriate sheep in the same manner as the 1° immunisations, at monthly intervals. Blood sampling took place 7-14 days after each boost. Each sample was processed to produce antiserum, which was further purified by caprylic acid and ammonium sulphate precipitation to yield an immunoglobulin (Ig) fraction. The Ig fraction was evaluated by competitive ELISA microtiter plate assay, as described in example 19 below.
Example 19: Development of competitive ELISA for JWH synthetic cannabinoids and metabolites. • (a) The wells of an enhanced binding 96 well polystyrene microtiter plate were coated with the Ig fraction of the antiserum raised to Immunogen I (Hapten A-BTG - example 5) and diluted in 10mM Tris, pH8.5 (125µl/well). The appropriate antibody coating concentration was determined using standard ELISA checkerboard techniques. The plate was incubated for 2 hours at 37°C, washed 4 times over a 10-minute period with Tris buffered saline containing Tween 20 (TBST) and tapped dry. Standard solutions of JWH synthetic cannabinoids, metabolites and selected molecules were prepared in TBST and 50µl of each was added to the appropriate wells. 75µl of conjugate (Hapten A-HRP) diluted in Tris buffer containing EDTA, D-mannitol, sucrose, thimerosal and BSA, was added to each of the wells. The appropriate dilution of conjugate was also determined using standard ELISA checkerboard techniques. The plate was incubated at 25°C for 1 hour. The excess unbound conjugate was removed by washing 6 times over a 10-minute period with TBST and tapped dry. 125µl of tetramethylbenzedine (TMB) substrate solution was added to each well of the plate that was then incubated for 15-20 minutes in the dark at room temperature. The reaction was terminated by addition of 125µl of 0.2M sulphuric acid to each well. The absorbance was then measured at 450nm using a microtiter plate reader. Employing each series of standards, calibration curves were generated and these were used to determine the specificity of the immunoassay for the JWH synthetic cannabinoids, metabolites and selected molecules. The results of this study are presented in Tables 1 to 3, cross-reactivity being calculated according to the following formula: %CR = […] /IC50,CR X 100 [formula] Where %CR is the percentage cross-reactivity, IC50, YWH-018 is the concentration of JWH-018 that causes 50% displacement of signal and IC50, CR is the concentration of JWH synthetic cannabinoid/metabolite/selected molecule that causes 50% displacement of signal.
Table 1: Data generated from a competitive microtiter plate assay for JWH synthetic cannabinoids and metabolites, employing antiserum raised to Immunogen II (Hapten B-BTG) and conjugate (Hapten A-HRP) as detection reagent. (b) In a similar manner to that described in Example 19(a), the wells of a 96 well microtiter plate were coated with the Ig fraction of the antiserum raised to Immunogen II ([…]). Conjugate (Hapten A-HRP) was employed as a detection reagent. […]

[3] = Cross-reactants at 100 ng/ml, Antibody to Immunogen VIII
[4] = Table 2, 40 ng/ml highest concentration tested
[5] = Table 2, CR based on 100% for JWH-018

Compound | %B/B0 [1, 3] | IC50 [2, 4] | % Cross-reactivity [2, 5] | binding to the antibody produced from Immunogen I [2] | other results
O=C(O)CCCCn1cc(C(=O)c2cccc3ccccc23)c2ccccc21 [JWH-018 N-pentanoic acid metabolite] | 100.31% | 0.42 ng/mL | 645.24% |  | 
O=C(c1cccc2ccccc12)c1cn(CCN2CCOCC2)c2ccccc12 [WIN 55,225 (other name JWH-200), JWH-200] | 98.81% | 0.31 ng/mL | 874.19% |  | 
O=C(c1cccc2ccccc12)c1cn(CCCCCO)c2ccccc12 [JWH-018 N-(5-hydroxypentyl) metabolite] | 57.37% | 0.18 ng/mL | 1505.56% |  | 
O=C(c1cccc2ccccc12)c1c[nH]c2ccccc12 [3-(1-naphthoyl)-1H-Indole, 3-(1-naphthoyl)-1H-indole] | 90.49% | 3.84 ng/mL | 70.57% |  | 
CCCCn1cc(C(=O)c2cccc3ccccc23)c2ccccc21 [JWH-073] | 25.50% | 0.93 ng/mL | 291.40% |  | 
CCCCCn1cc(C(=O)c2cccc3ccccc23)c2ccc(O)cc21 [JWH-018 6-hydroxyindole metabolite] | 89.86% | 2.04 ng/mL | 132.84% | able to bind | 
CCCCCn1cc(C(=O)c2cccc3ccccc23)c2c(O)cccc21 [JWH-018 4-hydroxyindole metabolite] | 16.72% | 25.51 ng/mL | 10.62% |  | 
CCCCCn1cc(C(=O)c2cccc3ccccc23)c2cc(O)ccc21 [JWH-018 5-hydroxyindole metabolite] | 87.67% | 0.39 ng/mL | 694.87% | able to bind | 
CCCCCn1cc(C(=O)c2cccc3ccccc23)c2ccccc21 [JWH-018] | 17.66% | 2.71 ng/mL | 100.00% | able to bind | %B/B0 ([1]; JWH-018 standard 1 ng/ml): 79%; %B/B0 ([1]; JWH-018 standard 3 ng/ml): 63%; %B/B0 ([1]; JWH-018 standard 5 ng/ml): 51%; %B/B0 ([1]; JWH-018 standard 10 ng/ml): 40%; %B/B0 ([1]; JWH-018 standard 20 ng/ml): 29%; %B/B0 ([1]; JWH-018 standard 40 ng/ml): 22%; %B/B0 ([1]; JWH-018 standard 80 ng/ml): 16%; IC50 ([1]; Table 3c standard curve, standard concentration which produces 50% B/B0): 5.230 ng/mL; IC50 ([2]; first Table 4, Immunogen I): 2.30 ng/mL; % Cross-reactivity ([2]; first Table 4, Immunogen I, JWH-018 = 100): 100.00%
CCCCCn1cc(C(=O)c2ccc(Cl)c3ccccc23)c2ccccc21 [JWH-398] | 18.66% |  | << 6.78% |  | IC50 ng/ml [2, 4]: >> 40 ng/ml
